This note sets out measurements from US12492229B2, “Antimicrobial peptides” (Donald Danforth Plant Science Center, priority 2019, dated 2025).

Assay [1] has as its system Botrytis cinerea. The assay is classed as cell-based. The note with it: Pichia pastoris-expressed peptide.
The test system of assay [2] is Fusarium graminearum. In kind it is cell-based. The following applies: Pichia pastoris-expressed peptide.
The subject of assay [3] is Phytophthora capsici. The assay is classed as cell-based. The note with it: Pichia pastoris-expressed peptide.
Assay [4] relates to A. rhizogenes. The assay can be described thus: In vitro antibacterial activity. In kind it is cell-based, Agrobacterium rhizogenes.
Assay [5] has as its system Fusarium oxysporum. In kind it is cell-based.
Assay [6] concerns Alternaria brassicicola. The assay is classed as cell-based. The note with it: Pichia pastoris-expressed peptide.
For assay [7], the system named is A. tumefaciens. As to the kind of experiment: In vitro antibacterial activity. The assay is classed as cell-based.

With “SbDef1: endogenous Sorghum bicolor defensin antifungal peptide, 49 amino acids, SEQ ID NO: 1; expressed in Pichia pastoris (VHVCTMRNKFFHGPCMSNKNCAASCIQHRIGGGGYCSSRRQICKCTLQC; Sorghum bicolor)”, the IC50 lay within 1500 to 2000 nM in assay [1]; 2000 to 3000 nM in assay [2]; 2000 to 3000 nM in assay [3]; 200 to 500 nM in assay [5]; 1500 to 2000 nM in assay [6]. Besides, the “MLC (minimal lethal concentration)” value in assay [1] is 3 µM; in assay [2] it was 6 µM; in assay [3], 6 µM; in assay [5], 0.75 µM; in assay [6], 6 µM. Moreover, the antibacterial activity result in assay [4] and in assay [7] was “does not exhibit any antibacterial activity” in each case.

By IC50 is commonly meant the concentration that gives 50% inhibition. A low value points to greater potency.
